Measurements published in patent US20060063803A1, “4-Amino substituted-2-substituted-1,2,3,4-tetrahydroquinoline compounds” (Pfizer Inc, priority 2004, published 2006).

Key:
[1] = In vitro microcentrifuge dissolution test; format: physicochemical; details: PBS pH 6.5, 290 mOsm/kg, 7.3 mM sodium taurocholic acid, 1.4 mM 1-palmitoyl-2-oleyl-sn-glycero-3-phosphocholine, 37° C.; 200 μgA/mL if all dissolved
Protocol: An in vitro dissolution test was used to determine the dissolution performance of the solid amorphous dispersion of Example 89. For this test, a sufficient amount of material was added to a microcentrifuge test tube so that the concentration of Compound A would have been 200 μgA/mL, if all of the compound had dissolved. The test was run in duplicate. The tubes were placed in a 37° C. temperature-controlled chamber, and 1.8 mL PBS at pH 6.5 and 290 mOsm/kg, containing 7.3 mM sodium taurocholic acid and 1.4 mM of 1-palmitoyl-2-oleyl-sn-glycero-3-phosphocholine, was added to each respective tube. The samples were quickly mixed using a vortex mixer for about 60 seconds. The samples were centrifuged at 13,000 G at 37° C. for 1 minute. The resulting supernatant solution was then sampled and diluted 1:5 (by volume) with methanol and analyzed by high-performance liquid chromatography (HPLC). HPLC analysis was performed using a Zorbax RX-C18 column. The mobile phase consisted of 30/70 0.15% trifluoroacetic acid/acetonitrile, with a flow rate of 1.0 mL/min. UV absorbance was measured at 254 nm. The contents of each tube were mixed on the vortex mixer and allowed to stand undisturbed at 37° C. until the next sample was taken. Samples were collected at 4, 10, 20, 40, 90, and 1200 minutes. […]

[2] = In vivo tests - dogs, oral suspension, serum levels by LC/MS/MS; details: dog, 3 male beagle dogs, fasted, oral gavage of OPC suspension, 3 mgA/kg
Protocol: Samples were dosed orally as suspensions to 3 male beagle dogs in the fasted state. Oral powders for constitution (OPC) were prepared by adding 150 mg of crystalline Compound A to 50 mL water containing 0.5 wt % Methylcellulose A, or 600 mg of the dispersion of Example 1 to 50 mL water containing 0.5 wt % Methylcellulose A and 0.1 wt % Tween 80. Dogs were fasted overnight, and allowed ad libidum access to water. On the morning of the study, approximately 10 mL of OPC solution (3 mgA/kg) was administered via oral gavage with 10 mL normal saline flush.
Whole-blood samples (3-mL red-top Vacutainer tubes without serum separators) were taken from the jugular vein before dosing and at 0.25, 0.5, 1, 2, 4, 6, 8, and 24 hours after dosing. Serum was harvested into cryovials after centrifugation at 3000 rpm for 10 minutes. The samples were frozen and then kept at −20° C. until they were analyzed by liquid chromatography with tandem mass spectrometry (LC/MS/MS).

With CC[C@@H]1C[C@H](N(Cc2cc(C(F)(F)F)cc(C(F)(F)F)c2)c2nnn(C)n2)c2cc(C(F)(F)F)ccc2N1C(=O)[C@H]1CC[C@H](CC(N)=O)CC1 [Crystalline Compound A, Trans-(2R,4S)-2-(4-{4-[(3,5-Bis-trifluoromethyl-benzyl)-(2-methyl-2H-tetrazol-5-yl)-amino]-2-ethyl-6-trifluoromethyl-3,4-dihydro-2H-quinoline-1-carbonyl}-cyclohexyl)-acetamide] the “AUC90 (area under the concentration-versus-time curve during the initial ninety minutes)” value [1] was 800 min * μgA/mL, the “MDC90 (maximum dissolved concentration of Compound A during the initial ninety minutes)” value [1] was 13 μgA/mL and the AUC(0-inf) [2] was 2690 ng·h/mL. It also gave a Cmax [2] of 186 ng/mL.
